Measurements as given in patent US8822468B2 (Novartis AG, priority 2008, dated 2014).

Target: T1, cMET receptor tyrosine kinase (GST-cMET (969-1390)) (Homo sapiens, UniProt P08581)
T1 construct: made in house
Test: EPK cMET profiling assay (LanthaScreen TR-FRET antibody based kinase phosphorylation assay)
Assay type: biochemical
Details: purified recombinant GST-cMET (969-1390), 2 μM ATP, 50 nM Fluorescein-PolyEAY, 60 minutes at room temperature; read-out: c-Met IC50
In short: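 Compounds tested at eight final concentrations from 10 down to 0.003 µM against affinity-purified GST-cMET (969-1390, 0.3 nM) with 2 µM ATP and 50 nM fluorescein-PolyEAY in Tris buffer with MgCl2 and MnCl2, 1 h at room temperature. After EDTA stop, phosphoproduct detected by LanthaScreen TR-FRET with Tb-PY20 antibody, end-point measurement.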

T1 sequence (P08581 969-1390): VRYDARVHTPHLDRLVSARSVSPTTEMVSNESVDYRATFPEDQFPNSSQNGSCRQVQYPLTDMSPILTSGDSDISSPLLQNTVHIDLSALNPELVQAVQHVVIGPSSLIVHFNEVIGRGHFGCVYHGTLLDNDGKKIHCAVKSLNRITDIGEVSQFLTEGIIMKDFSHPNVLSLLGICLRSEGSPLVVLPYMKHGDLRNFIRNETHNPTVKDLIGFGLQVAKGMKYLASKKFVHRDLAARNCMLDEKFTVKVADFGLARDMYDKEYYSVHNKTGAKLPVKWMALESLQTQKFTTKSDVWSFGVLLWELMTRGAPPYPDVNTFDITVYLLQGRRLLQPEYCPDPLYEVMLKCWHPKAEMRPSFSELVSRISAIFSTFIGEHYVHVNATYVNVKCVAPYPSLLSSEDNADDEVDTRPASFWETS

Question: With `Oc1ccc(-c2ccc3ncc(Cc4ccc5ncccc5c4)n3n2)cn1` [Example 73, 5-(3-Quinolin-6-ylmethyl-imidazo[1,2-b]pyridazin-6-yl)-pyridin-2-ol] as the compound, how does the IC50 read?
Answer: 48 nM

Question: For `CN(C)C1CCN(c2ccc3ncc(Cc4ccc5ncccc5c4)n3n2)CC1` [Example 86, Dimethyl-[1-(3-quinolin-6-ylmethyl-imidazo[1,2-b]pyridazin-6-yl)-piperidin-4-yl]-amine], which IC50 is on record?
Answer: 160 nM

Question: `CC(=O)c1cnc2ccc(Cc3cnc4ccc(-c5cnn(C)c5)nn34)cn12` [Example 301, 1-{6-[6-(1-Methyl-1H-pyrazol-4-yl)-imidazo[1,2-b]pyridazin-3-ylmethyl]-imidazo[1,2-a]pyridin-3-yl}-ethanone] was tested. Which IC50 did it give?
Answer: 71 nM

Question: For `c1cnc2ccc(Cc3cnc4ccc(-c5cc6ccccc6o5)nn34)cc2c1` [Example 31, 6-(6-Benzofuran-2-yl-imidazo[1,2-b]pyridazin-3-ylmethyl)-quinoline], which IC50 is on record?
Answer: 230 nM

Question: Which IC50 does the source give for `c1ccc(CN2CCC(Nc3ccc4ncc(Cc5ccc6ncccc6c5)n4n3)C2)cc1` (centres unmarked) [Example 117, (1-Benzyl-pyrrolidin-3-yl)-(3-quinolin-6-ylmethyl-imidazo[1,2-b]pyridazin-6-yl)-amine] here?
Answer: 630 nM

Question: `CN1CCC(n2cc(-c3ccc4ncc(Cc5ccc6ncccc6c5Cl)n4n3)cn2)CC1` [Example 228, 5-Chloro-6-{6-[1-(1-methyl-piperidin-4-yl)-1H-pyrazol-4-yl]-imidazo[1,2-b]pyridazin-3-ylmethyl}-quinoline] was tested. Which IC50 did it give?
Answer: 99 nM

Question: `CN(c1cccc(Cl)c1)c1ccc2ncc(Cc3ccc4ncccc4c3)n2n1` [Example 138, (3-Chloro-phenyl)-methyl-(3-quinolin-6-ylmethyl-imidazo[1,2-b]pyridazin-6-yl)-amine] was tested. Which IC50 did it give?
Answer: 960 nM

Question: For `CC(=O)N1CCC(n2cc(-c3ccc4ncc(Cc5cc6cccnc6cc5F)n4n3)cn2)CC1` [Example 230, 1-(4-{4-[3-(7-Fluoro-quinolin-6-ylmethyl)-imidazo[1,2-b]pyridazin-6-yl]-pyrazol-1-yl}-piperidin-1-yl)-ethanone], which IC50 is on record?
Answer: 27 nM

Question: With `CNC1CCN(c2ccc3ncc(Cc4ccc5ncccc5c4)n3n2)C1` (racemic) [Example 119, (rac)-Methyl-[1-(3-quinolin-6-ylmethyl-imidazo[1,2-b]pyridazin-6-yl)-pyrrolidin-3-yl]-amine] as the compound, how does the IC50 read?
Answer: 42 nM

Question: With `c1cnc2ccc(Cc3cnc4ccc(N5CCOCC5)nn34)cc2c1` [Example 84, 6-(6-Morpholin-4-yl-imidazo[1,2-b]pyridazin-3-ylmethyl)-quinoline] as the compound, how does the IC50 read?
Answer: 49 nM

Question: For `Cn1cc(-c2ccc3ncc([C@](C)(O)c4cc5cccnc5cc4F)n3n2)cn1` [Example 175, (R)-1-(7-Fluoro-quinolin-6-yl)-1-[6-(1-methyl-1H-pyrazol-4-yl)-imidazo[1,2-b]pyridazin-3-yl]-ethanol], which IC50 is on record?
Answer: 38 nM

Question: Which IC50 does the source give for `CCC(CC)Nc1ccc2ncc(Cc3ccc4ncccc4c3)n2n1` [Example 90, (1-Ethyl-propyl)-(3-quinolin-6-ylmethyl-imidazo[1,2-b]pyridazin-6-yl)-amine] here?
Answer: 74 nM

Question: `Clc1cc(-c2cc(-c3ccc4ncc(Cc5ccc6ncccc6c5)n4n3)ccn2)ccn1` [Example 50, 2′-Chloro-4-(3-quinolin-6-ylmethyl-imidazo[1,2-b]pyridazin-6-yl)-[2,4′]bipyridinyl] was tested. Which IC50 did it give?
Answer: 950 nM

Question: For `CC(c1ccc2nccn2c1)c1cnc2ccc(-c3cnn(CCO)c3)nn12` (racemic) [Example 189, (rac)-2-{4-[3-(1-Imidazo[1,2-a]pyridin-6-yl-ethyl)-imidazo[1,2-b]pyridazin-6-yl]-pyrazol-1-yl}-ethanol], which IC50 is on record?
Answer: 95 nM

Question: `Cc1csc(Nc2ccc3ncc(Cc4ccc5ncccc5c4)n3n2)n1` [Example 93] was tested. Which IC50 did it give?
Answer: 390 nM

Question: How did the IC50 turn out when `N#Cc1ccc2ncc(Cc3ccc4ncccc4c3)n2n1` [Example 208, 3-Quinolin-6-ylmethyl-imidazo[1,2-b]pyridazine-6-carbonitrile] was run?
Answer: 52 nM

Question: How did the IC50 turn out when `C[C@@H](c1ccc2ncccc2c1)c1cnc2ccc(-c3cnn(CCO)c3)nn12` [Example 179, 2-{4-[3-((S)-1-Quinolin-6-yl-ethyl)-imidazo[1,2-b]pyridazin-6-yl]-pyrazol-1-yl}-ethanol] was run?
Answer: 15 nM
